The values below come from PMC6300691, “Enhancement of Heat Stability and Kinetic Parameters of the Maize Endosperm ADP-Glucose Pyrophosphorylase by Mutagenesis of Amino Acids in the Small Subunit With High B Factors” (Frontiers in Plant Science, 2018).

Common to all, as to format: biochemical
Test [1] deals with T1, D242H (Zea mays, UniProt P55241+Q947C0, D242H).
T1 construct: BT2 variant with wild type SH2, E. coli, purified
The test can be described thus: Initial-rate assay (PPi formation coupled to NADH oxidation) with varied ATP (0.05-3.0 mM) at 2.0 mM G-1-P, 2.5 mM 3-PGA, 15 mM MgCl2, 50 mM HEPES pH 7.4, hyperbolic fit. Conditions: read-out: KM ATP. The source says: (§1) All saturation plots were hyperbolic. No cooperative effects were seen.

In test [2] the target is T2, E123G, R331K (Zea mays, UniProt P55241+Q947C0, E123G/R331K).
T2 construct: BT2 variant with wild type SH2, E. coli, purified
T2 sequence (Q947C0 1-475 E123G/R331K, one chain of several): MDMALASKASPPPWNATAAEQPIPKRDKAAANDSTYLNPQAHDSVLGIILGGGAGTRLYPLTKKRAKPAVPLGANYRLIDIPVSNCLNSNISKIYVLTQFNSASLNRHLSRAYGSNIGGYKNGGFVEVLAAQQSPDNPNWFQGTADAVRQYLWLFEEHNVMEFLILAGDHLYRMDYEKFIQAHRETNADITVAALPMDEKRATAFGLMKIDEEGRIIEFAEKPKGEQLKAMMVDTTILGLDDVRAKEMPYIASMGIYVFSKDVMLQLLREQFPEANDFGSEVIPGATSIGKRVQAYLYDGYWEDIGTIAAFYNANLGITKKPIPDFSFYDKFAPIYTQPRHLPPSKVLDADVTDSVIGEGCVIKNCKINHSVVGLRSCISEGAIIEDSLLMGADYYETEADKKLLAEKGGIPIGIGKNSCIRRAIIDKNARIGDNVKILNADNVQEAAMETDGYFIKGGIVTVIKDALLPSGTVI
Described as above. Conditions: read-out: KM ATP.
Excerpt: as §1

Test [3] has as its target T3, E123G, R331K, K402R (BT2-BF) (Zea mays, UniProt P55241+Q947C0, E123G/R331K/K402R).
T3 construct: BT2-BF with wild type SH2 (SH2-WT/BT2-BF), E. coli, purified
T3 sequence (Q947C0 1-475 E123G/R331K/K402R): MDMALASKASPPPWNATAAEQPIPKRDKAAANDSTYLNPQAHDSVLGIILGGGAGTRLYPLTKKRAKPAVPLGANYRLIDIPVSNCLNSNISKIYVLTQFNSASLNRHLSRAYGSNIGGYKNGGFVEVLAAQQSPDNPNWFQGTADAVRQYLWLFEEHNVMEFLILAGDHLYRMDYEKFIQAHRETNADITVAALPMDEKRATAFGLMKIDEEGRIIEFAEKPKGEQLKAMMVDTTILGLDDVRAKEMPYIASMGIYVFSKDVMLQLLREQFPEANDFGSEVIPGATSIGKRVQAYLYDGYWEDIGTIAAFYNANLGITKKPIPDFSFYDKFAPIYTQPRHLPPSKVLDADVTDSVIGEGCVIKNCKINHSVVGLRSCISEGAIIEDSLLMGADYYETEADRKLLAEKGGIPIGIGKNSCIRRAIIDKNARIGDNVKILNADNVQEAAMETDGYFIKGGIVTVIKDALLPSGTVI
T3 sequence (P55241 46-516): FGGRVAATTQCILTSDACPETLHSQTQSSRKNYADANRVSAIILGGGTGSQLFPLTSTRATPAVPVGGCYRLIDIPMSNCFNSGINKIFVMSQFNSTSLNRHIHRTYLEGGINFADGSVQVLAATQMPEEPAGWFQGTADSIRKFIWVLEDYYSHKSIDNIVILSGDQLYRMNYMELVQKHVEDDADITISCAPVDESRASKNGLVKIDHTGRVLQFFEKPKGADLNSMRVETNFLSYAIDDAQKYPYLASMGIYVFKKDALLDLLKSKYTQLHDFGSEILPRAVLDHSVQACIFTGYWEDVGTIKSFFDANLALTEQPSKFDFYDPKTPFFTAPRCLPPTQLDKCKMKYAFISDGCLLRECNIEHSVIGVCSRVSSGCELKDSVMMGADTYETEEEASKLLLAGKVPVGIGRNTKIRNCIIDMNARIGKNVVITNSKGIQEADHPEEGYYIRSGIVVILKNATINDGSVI
The test is described as above. Conditions: read-out: KM ATP.
Excerpt: as §1

Test [4] concerns the target T4, E123G, R331K, K402R, L404H (Zea mays, UniProt P55241+Q947C0, E123G/R331K/K402R/L404H).
T4 construct: BT2 quadruple variant with wild type SH2, E. coli, purified
The test is described as above. Conditions: read-out: KM ATP.
Excerpt: as §1

Test [5] has as its target T5, E123G, R331K, L404H (Zea mays, UniProt P55241+Q947C0, E123G/R331K/L404H).
T5 construct: BT2 variant with wild type SH2, E. coli, purified
Described as above. Conditions: read-out: KM ATP.
Excerpt: as §1

In test [6] the target is T6, E123Q (Zea mays, UniProt P55241+Q947C0, E123Q).
T6 construct: BT2 variant with wild type SH2, E. coli, purified
T6 sequence (Q947C0 1-475 E123Q, one chain of several): as the sequence (Q947C0 1-475 E123G/R331K, one chain of several) above, with G123Q, K331R counted along it
Described as above. Conditions: read-out: KM ATP.
Excerpt: as §1

The target in test [7] is T7, K402R (Zea mays, UniProt P55241+Q947C0, K402R).
T7 construct: BT2 variant with wild type SH2, E. coli, purified
T7 sequence (Q947C0 1-475 K402R, one chain of several): as the sequence (Q947C0 1-475 E123G/R331K, one chain of several) above, with G123E, K331R, K402R counted along it
The description is as above. Conditions: read-out: KM ATP.
Excerpt: as §1

Test [8] addresses T8, K403E (Zea mays, UniProt P55241+Q947C0, K403E).
T8 construct: BT2 variant with wild type SH2, E. coli, purified
The test is described as above. Conditions: read-out: KM ATP.
Excerpt: as §1

In test [9] the target is T9, K403L (Zea mays, UniProt P55241+Q947C0, K403L).
T9 construct: BT2 variant with wild type SH2, E. coli, purified
T9 sequence (Q947C0 1-475 K403L, one chain of several): as the sequence (Q947C0 1-475 E123G/R331K, one chain of several) above, with G123E, K331R, K403L counted along it
The test is described as above. Conditions: read-out: KM ATP.
Excerpt: as §1

Test [10] has as its target T10, L404E (Zea mays, UniProt P55241+Q947C0, L404E).
T10 construct: BT2 variant with wild type SH2, E. coli, purified
The description is as above. Conditions: read-out: KM ATP.
Excerpt: as §1

Test [11] has as its target T11, L404H (Zea mays, UniProt P55241+Q947C0, L404H).
T11 construct: BT2 variant with wild type SH2, E. coli, purified
The description is as above. Conditions: read-out: KM ATP.
Excerpt: as §1

Test [12] concerns the target T12, L404K (Zea mays, UniProt P55241+Q947C0, L404K).
T12 construct: BT2 variant with wild type SH2, E. coli, purified
Described as above. Conditions: read-out: KM ATP.
Excerpt: as §1

For test [13], the target named is T13, R331K (Zea mays, UniProt P55241+Q947C0, R331K).
T13 construct: BT2 variant with wild type SH2, E. coli, purified
T13 sequence (Q947C0 1-475 R331K, one chain of several): as the sequence (Q947C0 1-475 E123G/R331K, one chain of several) above, with G123E counted along it
The test is described as above. Conditions: read-out: KM ATP.
Excerpt: as §1

In test [14] the target is T14, R331P (Zea mays, UniProt P55241+Q947C0, R331P).
T14 construct: BT2 variant with wild type SH2, E. coli, purified
T14 sequence (Q947C0 1-475 R331P, one chain of several): as the sequence (Q947C0 1-475 E123G/R331K, one chain of several) above, with G123E, K331P counted along it
Described as above. Conditions: read-out: KM ATP.
Excerpt: as §1

The target in test [15] is T3, E123G, R331K, K402R (BT2-BF). Put plainly: Pi inhibition study without 3-PGA, ATP varied (0.1-3 mM) at fixed Pi levels (10-30 mM) and sub-saturating G-1-P (1 mM), fit to mixed-type inhibition equations. Conditions: read-out: Km (mM), varied substrate ATP, Pi inhibition in the absence of 3-PGA.
Method: Pi inhibition was carried out in both the presence and absence of 3-PGA with the Pi and substrate concentrations listed below.
Pi inhibition patterns in the presence and absence of 3PGA were also determined. Pi inhibition patterns were obtained by varying one substrate at several fixed concentrations of Pi, while holding the co-substrate at constant sub-saturating levels.
Test [16] concerns the target T15, SH2-ISM/BT2-BF (Zea mays, UniProt P55241+Q947C0, Q96G/E123G/D161G/R331K/K402R/A443R).
T15 construct: SH2-ISM co-expressed with BT2-BF, E. coli, purified
T15 sequence (Q947C0 1-475 E123G/R331K/K402R): T3 sequence (Q947C0 1-475 E123G/R331K/K402R)
T15 sequence (P55241 46-516 Q96G/D161G/A443R): T3 sequence (P55241 46-516) with Q51G, D116G, A398R
The description is as above. Conditions: read-out: Km (mM), varied substrate ATP, Pi inhibition in the absence of 3-PGA.

Test [17] addresses T6, E123Q. The test can be described thus: Activation constant from initial rates with varied 3-PGA (0-1 mM) at 2 mM ATP and 2 mM G-1-P, pH 7.4, 15 mM MgCl2, fitted to V = Vmin + Vmax*X/(Ka + X). The source says: All reactions were developed as above.

Numbering of substitutions follows the chain as printed.

T10 sequence (Q947C0 1-475 L404E, one chain of several): as the sequence (Q947C0 1-475 E123G/R331K, one chain of several) above, with G123E, K331R, L404E counted along it
T1 sequence (Q947C0 1-475 D242H, one chain of several): as the sequence (Q947C0 1-475 E123G/R331K, one chain of several) above, with G123E, D242H, K331R counted along it
T5 sequence (Q947C0 1-475 E123G/R331K/L404H, one chain of several): as the sequence (Q947C0 1-475 E123G/R331K, one chain of several) above, with L404H counted along it
T8 sequence (Q947C0 1-475 K403E, one chain of several): as the sequence (Q947C0 1-475 E123G/R331K, one chain of several) above, with G123E, K331R, K403E counted along it
T12 sequence (Q947C0 1-475 L404K, one chain of several): as the sequence (Q947C0 1-475 E123G/R331K, one chain of several) above, with G123E, K331R, L404K counted along it
T4 sequence (Q947C0 1-475 E123G/R331K/K402R/L404H, one chain of several): as the sequence (Q947C0 1-475 E123G/R331K, one chain of several) above, with K402R, L404H counted along it
T11 sequence (Q947C0 1-475 L404H, one chain of several): as the sequence (Q947C0 1-475 E123G/R331K, one chain of several) above, with G123E, K331R, L404H counted along it

Take `Nc1ncnc2c1ncn2[C@@H]1O[C@H](COP(=O)(O)OP(=O)(O)OP(=O)(O)O)[C@@H](O)[C@H]1O` [ATP, adenosine 5'-triphosphate]: the Km is 110 ± 16 µM in [1]; 80 ± 5 µM in test [2]; 60 ± 7 µM in test [3]; 91 ± 8 µM in test [4]; 67 ± 10 µM in test [5]; 52 ± 6 µM in [6]. In addition, the Km amounted to 79 ± 15 µM in test [7]; 69 ± 12 µM in [8]; 82 ± 17 µM in test [9]; 135 ± 47 µM in test [10]; 132 ± 22 µM in [11]; 43 ± 9 µM in [12]. Also, the Km stood at 88 ± 13 µM in test [13], 97 ± 15 µM in [14], 0.79 ± 0.075 mM in test [15] and 3.6 ± 1.63 mM in [16].

Regarding `O=C(O)[C@H](O)COP(=O)(O)O` [3-PGA, 3-phosphoglycerate (3-phosphoglyceric acid)], the “3-PGA Ka (activation constant)” value in test [17] is 0.12 ± 0.022.
